Test results published in PubChem BioAssay AID179 (DTP/NCI, 2004).
pEC50, pIC50: −log10 of the molar value. Calls of active or inactive are those of the source.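 The calls were made as follows: active = compounds giving half or more protection of infected cells from virus-caused growth loss, again on retest; inactive = the rest.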

Tested on: CEM cells HIV-1 protection, formazan growth assay
Experiment: NCI AIDS Antiviral Assay
Details: for pIC50: measured here: growth of uninfected CEM cells
Method: The ability of compounds to protect human CEM cells from HIV-1 infection is measured as a screen for new compounds capable of inhibiting the HIV virus. Five concentrations of drug were tested on uninfected and infected cells and cell growth was measured using a soluble formazan assay. […] Compounds that provided at least 50% protection were retested. Compounds that provided at least 50% protection on retest were listed as moderately active. Compounds that reproducibly provided 100% protection were listed as confirmed active. […] Note that the inability to provide protection could be due to toxicity.

Compound | pEC50 | pIC50 | outcome
CC(=O)SCCC(NC(=S)Nc1ccccc1)P(=O)(Oc1ccccc1)Oc1ccccc1 (stereo not drawn) | < 3.70 | 4.31 | –
COc1ccc(-n2sc3ncccc3c2=O)cc1 | < 4.74 | 5.22 | –
O=C(O)CCC(=O)NCCNC(=O)CCC(=O)O | < 3.02 | < 3.02 | –
COc1ccc2c(c1)C(O)C(CO)C(C(=O)O)C2 (stereo not drawn) | < 3.70 | < 3.70 | –
Clc1ccc2c(NCCCCN3OC3c3ccccc3)ccnc2c1 (stereo not drawn) | < 3.70 | 5.30 | –
Cc1cccc2c(=O)c3c(O)cc(O)cc3n(C)c12 | 3.84 | < 3.70 | –
O=c1c2ccccc2nc(/C=C(\O)c2ccncc2)n1-c1ccc(Cl)cc1 | < 5.84 | < 5.84 | –
COc1cccc2c1C(=O)c1ccc3cc(CO)cc(O)c3c1C2=O | < 3.70 | 5.95 | –
CCN=C(NNc1ccc([N+](=O)[O-])cc1)P(=O)(OC(C)C)OC(C)C | < 4.44 | < 4.44 | –
OCC1OCOC2COCOC12 (stereo not drawn) | < 3.70 | < 3.70 | –
Cc1c(Cl)ccc2c1NC(=O)C2(O)CC(=O)c1ccc(Cl)cc1 (stereo not drawn) | < 4.50 | < 4.50 | –
C=CCN1CCC(OC(=O)C(O)(C#CC)C2CCCC2)CC1 (stereo not drawn) | < 3.70 | < 3.70 | –
Cc1cn(COCCSc2ccccc2)c(=O)[nH]c1=O | < 3.87 | 4.08 | –
Cc1ccc2c(c1)CN1c3ccc(C)cc3CN2C1c1ccccc1O | – | – | inactive
C(=C\c1ccnc2ccccc12)/c1cccnc1 | < 3.81 | 4.37 | –
CCCCCCCCCCO/N=C\c1c2c(O)c3c(O)c(C)c4c(c3c1O)C(=O)C(C)(O/C=C\C(OC)C(C)C(OC(C)=O)C(C)C(O)C(C)C(O)C(C)/C=C\C=C(\C)C(=O)N2)O4 (stereo not drawn) | < 3.70 | 5.52 | –
C=CCSc1nn(CC=C)cc2ncnc1-2 | < 3.70 | < 3.70 | –
CCOC(=O)[C@@H](NC(=O)OC(C)(C)C)[C@@H](O)C(=O)OCC | < 3.70 | < 3.70 | –
CCc1cccc(CC)c1Nc1nc2c(s1)C(=O)c1ccccc1C2=O | < 3.70 | 4.48 | –
COC1OC(COC(=O)c2ccccc2)C(OC(=O)c2ccccc2)C1NC(C)=O (stereo not drawn) | < 3.70 | < 3.70 | –
CCCc1cc(=O)oc2c3c(cc(OC(C)CC)c12)O[C@H](C)[C@@H](C)C3=O (stereo partly drawn) | < 4.22 | 4.85 | –

Compound | pEC50 | pIC50 | outcome
C1=CC2SSSC2C1 (stereo not drawn) | < 3.60 | < 3.60 | –
c1cnn(C23C4C5C6C4C2C6C53)c1 (stereo not drawn) | < 3.70 | < 3.70 | –
CCC[CH2][Sn]1([CH2]CCC)[O]CC(CN2CCCC2)[O]1 (stereo not drawn) | < 4.46 | – | –
COCCN(C(=O)c1ccccc1)C1CCC(=O)c2[nH]c3ccccc3c21 (stereo not drawn) | < 3.70 | 5.44 | –
CCOC(=O)C1C2CCC(O2)C1C(=O)O (stereo not drawn) | < 3.70 | 4.67 | –
CC[C@](O)(CC(=O)O[C@H]1C(=O)O[C@@H]2C[C@H]3C(C)=CC(=O)[C@@H](O)[C@]3(C)[C@H]3[C@@]4(O)OC[C@]32[C@@H]1[C@@H](C)[C@H]4O)C(C)C | < 6.70 | 8.44 | –
CCOC(=O)C(=CN1CC(=O)NC1=S)C(=O)OCC | < 3.70 | < 3.70 | –
CCn1c(=O)c2nc(SC)sc2n(-c2ccc(C)cc2)c1=O | – | – | inactive
O=C(NN1CCCCCC1)NS(=O)(=O)c1ccc(Cl)cc1 | < 3.70 | < 3.70 | –
CC1(C)CNCC2(C)OCCCCCCCCCCOC3(C)CNCC(C)(C)[N-]C(=O)C(C)(CNCC(C)(C)[N-]C3=O)OCCCCCCCCCCOC(C)(CNCC(C)(C)[N-]C2=O)C(=O)[N-]1.[Ni+2].[Ni+2] | < 3.70 | – | –
COc1cc(OC)c(C(=O)CC(=O)c2cc(OC)c(OC)c(OC)c2OC)cc1OC | < 3.24 | 3.32 | –
Cc1cc(C(c2cc(C)c(O)c(C(=O)O)c2)c2cc(C)c(O)c(C(=O)O)c2)cc(C(=O)O)c1O | < 3.57 | < 3.57 | –
C[C@@H]1CC[C@@]2(OC1)O[C@H]1C[C@H]3[C@@H]4CC[C@H]5C[C@@H](OC6OC(CO)C(OC7OC(CO)C(O)C(OC8OCC(O)C(O)C8O)C7OC7OC(CO)C(O)C(O)C7O)C(O)C6O)CC[C@]5(C)[C@H]4CC[C@]3(C)[C@H]1[C@@H]2C (stereo partly drawn) | < 4.00 | 5.21 | –
O=C1CC(c2c(-c3ccccc3)[nH]c3ccccc23)C(=O)N1c1ccccc1 (stereo not drawn) | – | – | inactive
CC1CC[N+]2(C)CCCC12 (stereo not drawn) | < 2.95 | < 2.95 | –
CC1NOC(=O)C1N=Nc1ccc(Cl)cc1Cl (stereo not drawn) | < 4.44 | < 4.44 | –
CCOC(=O)c1ccc(CS(=O)c2ccc([N+](=O)[O-])cc2)c([N+](=O)[O-])c1 (stereo not drawn) | < 4.16 | 4.67 | –
O=C(Nc1ccccc1)N(CCN(Cc1ccccc1)C(=O)Nc1ccccc1)CCN(Nc1ccccc1)C(=O)Nc1ccccc1 | < 3.70 | < 3.70 | –
Cn1nc(NC(=O)c2cc(N)nn2C)cc1C(=O)Nc1ccc2cc(S(=O)(=O)O)cc(S(=O)(=O)O)c2c1 | < 3.70 | < 3.70 | –
CCC(=O)C(CCN1CCC(n2c(=O)[nH]c3ccccc32)CC1)(c1ccccc1)c1ccccc1 | < 3.70 | 4.72 | –
Oc1cccc2ccc(Br)nc12 | < 3.70 | 3.75 | –

Compound | pEC50 | pIC50 | outcome
O=Nc1c(O)cc(Nc2cccnc2)c2ccccc12 | 3.99 | 3.74 | –
CCN1C(=O)C(=O)OC1=C(c1ccccc1)c1ccccc1 | – | – | inactive
CC(=O)Nc1ccc(SSc2ccc(NC(C)=O)c3cccnc23)c2ncccc12 | < 3.70 | 5.63 | –
CCOc1cc(/C=C2\N=C(c3ccccc3)OC2=O)ccc1O | < 4.63 | < 4.63 | –
Cc1c2c(n(Cc3ccccn3)c1C)NN=C(C#N)S2(=O)=O | < 3.70 | < 3.70 | –
N#Cc1n[nH]n(-c2ccccc2)c1=O | < 3.70 | < 3.70 | –
O=[N+]([O-])c1cccc([N+](=O)[O-])c1S(=O)(=O)c1ccccc1 | < 4.21 | 5.20 | –
Cc1cc2c(cc1Cl)SC(NN(C)C)=NS2(=O)=O | < 3.70 | 3.93 | –
CCOCC1c2ccccc2CCN1Cc1c[nH]c2ccccc12 (stereo not drawn) | < 3.70 | 4.71 | –
COc1cc(Cc2nnc(Nc3ccccc3)[nH]c2=O)cc(OC)c1OC | < 3.59 | < 3.59 | –
COc1ccc(C(=O)CC2(O)C(=O)N(CN3CCOCC3)c3ccc(Br)cc32)cc1 (stereo not drawn) | < 3.91 | 3.98 | –
CN(C)c1ccc(/C=C(\NC(=O)c2ccccc2)C2NC(Cc3c[nH]c4ccccc34)C(=O)O2)cc1 (stereo not drawn) | < 4.00 | 5.06 | –
CCCCCCCCCCCCCCCCNCCCS(=O)(=O)O | < 3.70 | 5.41 | –
OC12CCC3(O)c4ccccc4C3C1c1ccccc12 (stereo not drawn) | < 3.70 | < 3.70 | –
CN(C)c1ccc(/C=C(\C#N)c2nc(-c3cc4ccccc4oc3=O)cs2)cc1 | 5.01 | < 4.00 | –
NC(=Nc1ccccc1)C(F)(F)F | < 3.70 | < 3.70 | –
CCN(CC)C(=O)C[n+]1c2ccccc2n2cc(N)ccc21 | < 3.70 | < 3.70 | –
C=CN(C=C)C(=O)Cn1cc(-c2ccccc2)nn1 | < 3.70 | < 3.70 | –
CCOC(=O)C1=C(C)C2C3C(=O)NC(=O)C3C1(C)C1C(=O)NC(=O)C21 (stereo not drawn) | < 3.14 | < 3.14 | –
Nc1ncnc2c(C3OC(CO)C(O)C3O)c[nH]c12 (stereo not drawn) | < 3.08 | 6.58 | –
